Results reported in patent publication US20180296564A1, “METHOD FOR PREVENTING AND/OR TREATING CHRONIC TRAUMATIC ENCEPHALOPATHY - III” (Eustralis Pharmaceuticals Limited (trading as Pressura …, priority 2013, published 2018).

System: tau phosphorylation
Experiment: Tau phosphorylation after concussive injury in the rat (immunohistology)
Assay type: in vivo
Details: rat concussion model; 3 mg/kg intravenously at 30 min after induction of injury; assessed 3 days after the concussive event
Description: Note that concussive injury in the rat causes extensive tau phosphorylation (B) by 3 days after the concussive event compared to non-injured animals (A). […] Having established that hyperphosphorylated tau accumulates perivascularly following concussive injury, we used an animal model of concussion to investigate whether concussion causes perivascular release of substance P. We developed a rodent model of concussion to replicate the concussive event (Donkin et al., 2004, 7th International Neurotrauma Symposium, pp 75-78, Medimond Publishers, Bologna, Italy) and subsequently determined whether substance P was released after such an event. There was a clear increase in brain perivascular substance P immunoreactivity after the concussive event (FIG. 2). […] Having shown that mechanical injury causes release of substance P after concussive injury, we then investigated whether Emend® reduces tau hyperphosphorlation after concussive injury. […] Note that concussive injury in the rat causes extensive tau phosphorylation (B) by 3 days after the concussive event compared to non-injured animals (A). […] Thus, administration of Emend® prevents tau hyperphosphorylation and thus prevents the development of CTE.

C[C@@H](O[C@H]1OCCN(Cc2nc(=O)[nH][nH]2)[C@H]1c1ccc(F)cc1)c1cc(C(F)(F)F)cc(C(F)(F)F)c1 [Emend®, 5-([(2R,3S)-2-((R)-1-[3,5-bis(trifluoromethyl)phenyl]ethoxy)-3-(4-fluorophenyl)morpholino]methyl)-1H-1,2,4-triazol-3(2H)-one]
effect on tau phosphorylation after concussive injury: almost complete inhibition of tau phosphorylation
